Where two headings read alike, the source gives them in different places. Marks after values point to notes of the source that are not given here.
Assays:
[1] = test system: 1X-Ab; test: Competitive antigen ELISA, cross-reactivity of 1X-Ab; type: binding, rabbit; details: for % Cross-Reaction 1X-Ab: competitive antigen ELISA, 0 = absence of inhibition or inhibition no higher than 40% at 5 × 10^−3 M
Experimental: (§1) Buffers and water without additives are filtered through millipore filters and kept for 1 week. BSA, antibodies, Tween™ 20 and horse radish peroxidase conjugates are added to these buffers and water just prior to use. Urine samples are usually collected 4 hours after drinking a cup of coffee (instant or brewed with approximately 100 mg of caffeine per cup) and stored at −80° C. The urine samples are diluted 10 times with sodium phosphate buffer (620 mosm, pH 7.50) and are subsequently diluted with water to give concentrations of AAMU and 1X no higher than 3×10^−6 M in the ELISA. All the pipettings are done with an eight-channel pipette, except those of the antibody and sample solutions. Starting with the last well, 100 μL of a carbonate buffer (100 mM, pH 9.6) containing 2.5 μg mL-^1 antibodies are added to each well. After 90 min. at room temperature, the wells are washed three times with […] of TPB: isotonic sodium phosphate buffer (310 mosm, pH 7.50) containing 0.05% Tween™ 20.
(§2) After the initial wash, unoccupied sites are blocked by incubation for 90 min. at room temperature with 100 μL TBP containing 3% BSA. The wells are washed four times with 100 μL TPB. […] The microplate is gently shaken with an orbital shaker at room temperature for 3-4 hours. The wells are washed three times with 100 μL TPB containing 1% BSA and three times with water containing 0.05% Tween™ 20. To the washed plate is added 150 μL of a substrate buffer composed of citric acid (25 mM) and sodium phosphate dibasic buffer (50 mM, pH 5.0) containing 0.06% hydrogen peroxide and 0.04% o-phenylenediamine hydrochloride.
(§3) Buffers and water without additives were filtered through millipore filters and kept for 1 week. BSA, antibodies, Tween™ 20 and horse radish peroxidase conjugates were added to these buffers and water just prior to use. Urine samples were usually collected 4 hours after drinking a cup of coffee (instant or brewed with approximately 100 mg of caffeine per cup) and stored at −80° C. They were diluted 10 times with sodium phosphate buffer (620 mosm, pH 7.50) and were subsequently diluted with water to give concentrations of AAMU and 1X no higher than 3×10^−6 M in the ELISA. All the pipettings were done with an eight-channel pipette, except those of the antibody and sample solutions. Starting with the last well, 100 μL of a carbonate buffer (100 mM, pH 9.6) containing 2.5 μg mL-^1 antibodies was pipetted. After 90 min. at room temperature, the wells were washed three times with 100 μL of TPB: isotonic sodium phosphate buffer (310 mosm, pH 7.50) containing 0.05% Tween™ 20.
(§4) After the initial wash, unoccupied sites were blocked by incubation for 90 min. at room temperature with 100 μL TBP containing 3% BSA. The wells were washed four times with 100 μL TPB. […] The microplate was gently shaken with an orbital shaker at room temperature for 3-4 hours. The wells were washed three times with 100 μL with TPB containing 1% BSA and three times with water containing 0.05% Tween™ 20. To the washed plate was added 150 μL of a substrate buffer composed of citric acid (25 mM) and sodium phosphate dibasic buffer (50 mM, pH 5.0) containing 0.06% hydrogen peroxide and 0.04% o-phenylenediamine hydrochloride. After 20 min. at room temperature with shaking, the reaction was stopped with 50 μL of 2.5 N HCl.
(§5) The cross reactivities of AAMU-Ab and 1X-Ab were tested using a wide variety of caffeine metabolites and structural analogs (Table 2 below).

[2] = test system: AAMU-Ab; test: Competitive antigen ELISA, cross-reactivity of AAMU-Ab; type: binding, rabbit; details: for % Cross-Reaction AAMU-Ab: competitive antigen ELISA, 0 = absence of inhibition or inhibition no higher than 40% at 5 × 10^−3 M
Experimental: as §1, §2, §3, §4, §5

[3] = cited from earlier work
[4] = cited from earlier work; remark: listed apart in the source
[5] = cited from earlier work; remark: listed apart in the source

SMILES | % Cross-Reaction 1X-Ab [1] [%] | % Cross-Reaction AAMU-Ab [2] | further results
Nc1nc2nc[nH]c2c(=O)[nH]1 [Guanine] | 0 | 0% | 
Nc1ccc(S(=O)(=O)c2ccc(N)cc2)cc1 [dapsone] |  |  | adverse reactions to dapsone ([3]; fast acetylators): 17%; adverse reactions to dapsone ([3]; slow acetylators): 46%
Cn1c(=O)[nH]c2nc[nH]c2c1=O [1-Methyl Xanthine (1X), 1-Methyl Xanthine] | 100 | 0% | IC50 ([1]; read-out: concentration required for 50% inhibition in the competitive antigen ELISA, 1X-Ab): 10 µM
Cn1cnc2c1c(=O)[nH]c(=O)n2C [3,7-Dimethyl Xanthine (Theobromine), 3,7-Dimethyl Xanthine] | 0 | 0% | 
Cn1c(=O)[nH]c(=O)c2[nH]cnc21 [3-Methyl Xanthine] | 0 | 0% | 
CC(=O)Nc1c(N)n(C)c(=O)n(C)c1=O [5-Acetamino-6-amino-1,3-dimethyluracil] | 0 | 0% | 
Cn1c(=O)c2[nH]cnc2n(C)c1=O [1,3-Dimethyl Xanthine (Theophylline), 1,3-Dimethyl Xanthine] | 0.2 | 0% | 
Cn1cnc2[nH]c(=O)[nH]c(=O)c21 [7-Methyl Xanthine] | 0 | 0% | 
CC(=O)Nc1c(N)[nH]c(=O)[nH]c1=O [5-Acetamino-6-amino-uracil] | 0 | 0.6% | 
NC(=O)c1cccnc1 [Nicotinamide] |  |  | effect on lipoproteins ([4]; doses similar to those of nicotinic acid): does not have a significant effect on lipoproteins
O=C(O)c1cccnc1 [niacin, nicotinic acid] |  |  | LDL cholesterol reduction ([4]; 1000 to 1500 mg per day): about 15%; reduction of triglyceride levels ([4]; 1000 to 1500 mg per day): up to 30%; LDL cholesterol-lowering effect ([4]; 2000 to 4000 mg per day): ~25%; increase in HDL cholesterol level ([4]; 2000 to 4000 mg per day): up to 30%; reduction of triglyceride levels ([4]; 2000 to 4000 mg per day): up to 50%; effect on lipoproteins ([4]; low dosages (<500 mg per day)): little predictable effect
Cn1c(=O)c2c(ncn2C)n(C)c1=O [1,3,7-Trimethyl Xanthine (Caffeine), 1,3,7-Trimethyl Xanthine] | 0 | 0% | 
O=c1[nH]cnc2nc[nH]c12 [Hypoxanthine] | 0 | 0% | 
Cn1c(=O)[nH]c2ncn(C)c2c1=O [1,7-Dimethyl Xanthine (Paraxanthine), 1,7-Dimethyl Xanthine] | 0.5 | 0% | 
Cn1c(=O)[nH]c2[nH]c(=O)[nH]c2c1=O [1-Methyluric acid] | 11 | 0% | 
Cc1nc2[nH]c(=O)[nH]c(=O)c2[nH]1 [8-Methyl Xanthine] | 0 | 0% | 
O=c1cc[nH]c(=O)[nH]1 [Uracil] | 0 | 0% | 
O=c1[nH]c(=O)c2[nH]c(=O)[nH]c2[nH]1 [Uric acid] | 0 | 0% | 
CC(=O)Nc1c(N)n(C)c(=O)[nH]c1=O [5-Acetamino-6-amino-1-methyluracil] | 0 | 100% | IC50 ([2]; read-out: concentration required for 50% inhibition in the competitive antigen ELISA, AAMU-Ab): 1.5 µM
COc1ccc2c(c1)[C@]13CCCC[C@@H]1[C@H](C2)N(C)CC3 [Dextromethorphan] |  |  | mean performance ±SE ([5]; EMs (extensive metabolizers)): 95±0.5%; mean performance ±SE ([5]; PMs (poor metabolizers)): 86±6%
Cn1c(=O)[nH]c2[nH]c(=O)n(C)c2c1=O [1,7-Dimethyluric acid] | 0 | 0% | 
O=c1[nH]c(=O)c2[nH]cnc2[nH]1 [Xanthine] | 0 | 0^a % | 

— patent US20030053950A1, “Individualization of therapy with hyperlipidemia agents” (McGill University, priority 2001, published 2003)
